Series [1] deals with T1, PI5P4Kβ (Homo sapiens, UniProt P78356).
T1 sequence (P78356 1-416): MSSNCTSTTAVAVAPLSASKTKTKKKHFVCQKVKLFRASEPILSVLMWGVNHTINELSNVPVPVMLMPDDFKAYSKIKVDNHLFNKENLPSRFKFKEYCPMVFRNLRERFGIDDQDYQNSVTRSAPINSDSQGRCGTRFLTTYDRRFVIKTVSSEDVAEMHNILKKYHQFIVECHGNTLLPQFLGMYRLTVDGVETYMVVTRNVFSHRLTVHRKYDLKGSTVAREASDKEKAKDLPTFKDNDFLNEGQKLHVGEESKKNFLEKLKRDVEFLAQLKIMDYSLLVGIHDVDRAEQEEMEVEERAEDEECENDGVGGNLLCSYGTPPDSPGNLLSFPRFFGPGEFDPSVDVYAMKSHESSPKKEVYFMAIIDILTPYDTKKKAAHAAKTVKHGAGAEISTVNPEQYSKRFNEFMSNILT
The experiment in a line: KINOMEscan KD (Eurofins Discovery, DiscoverX). The class given is binding. The procedure:
(§1) a Data were generated at Eurofins Discovery using DiscoverX KINOMEscanTM technology. Streptavidin-coated magnetic beads were treated with biotinylated small molecule ligands for 30 minutes at room temperature to generate affinity resins for kinase assays. The liganded beads were blocked with excess biotin and washed with blocking buffer (SeaBlock (Pierce), 1% BSA, 0.05% Tween 20, 1 mM DTT) to remove unbound ligand and to reduce non-specific binding. Binding reactions were assembled by combining kinases, liganded affinity beads, and test compounds in 1x binding buffer (20% SeaBlock, 0.17x PBS, 0.05% Tween 20, 6 mM DTT). Test compounds were prepared as 111X stocks in 100% DMSO. Kds were determined using an 11-point 3-fold compound dilution series with three DMSO control points. All compounds for Kd measurements are distributed by acoustic transfer (non-contact dispensing) in 100% DMSO. The compounds were then diluted directly into the assays such that the final concentration of DMSO was 0.9%. All reactions performed in polypropylene 384-well plate. Each was a final volume of 0.02 ml. The assay plates were incubated at room temperature with shaking for […]
(§2) room temperature with shaking for 30 minutes. The kinase concentration in the eluates was measured by qPCR. […]

The target of series [2] is T2, PI5P4Kγ-WT (Homo sapiens, UniProt Q8TBX8).
T2 sequence (Q8TBX8 1-421): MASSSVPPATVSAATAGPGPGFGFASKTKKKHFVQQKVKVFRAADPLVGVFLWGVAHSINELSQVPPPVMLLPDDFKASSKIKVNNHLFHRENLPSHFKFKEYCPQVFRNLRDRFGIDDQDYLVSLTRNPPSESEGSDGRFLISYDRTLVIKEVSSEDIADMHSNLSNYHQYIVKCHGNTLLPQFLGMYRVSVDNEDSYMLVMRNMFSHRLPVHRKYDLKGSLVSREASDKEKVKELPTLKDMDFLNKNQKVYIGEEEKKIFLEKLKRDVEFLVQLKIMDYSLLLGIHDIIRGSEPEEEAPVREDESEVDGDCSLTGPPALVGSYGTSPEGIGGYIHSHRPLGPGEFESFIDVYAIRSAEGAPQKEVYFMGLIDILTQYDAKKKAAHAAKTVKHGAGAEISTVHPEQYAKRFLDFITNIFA
The series is described as follows: KINOMEscan KD (Eurofins Discovery, DiscoverX). Type of series: binding. The protocol:
as §1, §2

The nature of series [3]: Kinetic solubility. Type of series: physicochemical. The following applies: PBS buffer, PBS pH 7.4. The procedure: Kinetic solubility analysis was performed by Charles River Laboratories Inc. (ADME-SOP-01). Compound in
DMSO at 10 mM was diluted to 200 µM in both DMSO and buffer (0.1 M PBS, pH 7.4, 2% DMSO final), and
an aliquot of the 200 µM DMSO solution was diluted to 10 µM, and all dilutions were equilibrated for 2 hours. […]
Compound 9 was purchased from Am binter (Amb16536894) and was determined by UPLC to have purity >95%.
All other compounds were synthesised as described below , and all tested compounds have purity >95% by UPLC

For series [4], the target named is T3, PI5P4Kγ+ (Homo sapiens, UniProt Q8TBX8, D138G/D197E/E133P/E135D/E153T/E196G/G136S/G139A/N195G/S132L/S134N).
T3 construct: GST (N, cleaved yes); made in house; host or cells: E. coli BL21(DE3), pGEX6P
T3 sequence (Q8TBX8 with tags, fused parts or gaps INS131LPN/S132D/E133S/S134Q/E135A/G136R/D138G/G139A/E153T/N195G/E196G/D197E): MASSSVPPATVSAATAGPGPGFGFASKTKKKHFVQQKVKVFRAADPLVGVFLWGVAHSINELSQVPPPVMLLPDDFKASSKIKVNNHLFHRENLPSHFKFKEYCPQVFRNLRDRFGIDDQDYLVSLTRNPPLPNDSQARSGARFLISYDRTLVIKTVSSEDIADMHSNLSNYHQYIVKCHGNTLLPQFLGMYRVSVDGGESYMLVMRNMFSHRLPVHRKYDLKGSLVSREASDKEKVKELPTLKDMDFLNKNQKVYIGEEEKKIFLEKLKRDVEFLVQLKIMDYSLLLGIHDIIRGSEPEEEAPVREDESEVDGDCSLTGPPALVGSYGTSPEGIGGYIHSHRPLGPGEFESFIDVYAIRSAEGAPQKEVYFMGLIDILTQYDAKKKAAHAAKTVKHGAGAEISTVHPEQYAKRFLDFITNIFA
The series is described as follows: ADP-Glo inhibition assay. The following applies: for IC50: ADP-Glo; for PI5P4Kγ+ LE: ligand efficiency from PI5P4Kγ+ pIC50. Type of series: biochemical. The procedure: Recombinant mutant PI5P4Kγ+ was prepared essentially as described previously.[25] […] Cultures were induced with 0.4 mM IPTG and probe sonicated in the presence of protease inhibitors. The GST fusion protein of PI5P4Kγ+ was harvested by binding to glutathione sepharose beads (Cytiva) and cleaved in situ with 50U of PreScission protease (Cytiva) for 4 h at 4 °C. The cleaved protein was further purified by size-exclusion chromatography (AKTA Pure, Cytiva). The protein purity was confirmed by sodium dodecyl sulphate–polyacrylamide gel electrophoresis, and the concentration was determined by colorimetric assay (Bio-Rad).
Statistical analysis was performed using nonparametric testing in Prism 8 (GraphPad). Activity pIC50 values and in vivo binding pEC50 values were estimated using a 4-parameter fit (Dotmatics).
(In general: ADP-Glo first removes unused ATP, then detects ADP through luciferase.)

Series [5] is described as follows: Plasma protein binding. The class given is in vitro ADME. Particulars: Mouse plasma protein binding; read-out: mPPB (converted). The procedure: Plasma protein binding analysis was performed by Charles River Laboratories Inc. (ADME-SOP-90). Briefly, compounds in DMSO (10 µM, 0.5% DMSO final) were added to mouse plasma and dialysed against buffer for 4 hours at 37 °C. The compound concentration in each of the plasma and buffer compartments was determined by mass spectrometry and used to calculate the percentage compound bound. […]

Converted amounts (≈) assume the structure as drawn. Read-outs that look alike come from different tables or passages of the source.

The Kd is the equilibrium constant for the complex coming apart. A word on the solubility: it is the concentration that dissolves in the medium under given conditions. The low end stands for little dissolved substance, the high end for much dissolved substance.

On to `CC(C)c1ccccc1-c1nc(NCc2ccccn2)c2c(ccn2C)n1` [Compound 40], for which the values for the dissociation constant Kd in series [1] and in series [2] were greater than 30000 nM and 68 nM, respectively. The compound further yielded a solubility at 2 h in series [3] of 7 µM (≈ 2.5 µg/mL). In series [4] (mutant PI5P4Kγ+ construct, read-out: PI5P4Kγ+ pIC50 (converted)), the IC50 was 631 nM. Moreover, the “PI5P4Kγ+ LE” value in series [4] was 0.32. Besides, in series [5], the fraction unbound at 4 h, 10 µM is 0.01.
Regarding `FC(F)(F)c1ccccc1-c1nc(NCc2cccs2)c2ccccc2n1` [Compound 1, NIH-12848, reference compound], the Kd in series [1] is greater than 30000 nM; in series [2] it was 4000 nM. In series [3], this compound came in with a solubility at 2 h of less than 5 µM. In addition, the IC50 in series [4] (new data, read-out: PI5P4Kγ+ IC50) was determined as 790 nM. Further, the “PI5P4Kγ+ LE” value in series [4] is recorded as 0.32. Also, the fraction unbound at 4 h, 10 µM in series [5] is less than 0.01.

For the origin of these results see article PMC9097471, “Development of Selective Phosphatidylinositol 5-Phosphate 4-Kinase γ Inhibitors with a Non-ATP-competitive, Allosteric Binding Mode” (Journal of Medicinal Chemistry, 2022).
